In US20100080762A1, “SKIN CARE COMPOSITION” (priority 2006, published 2010):

Key:
Assay type in all cases: cell-based, human
Interleukin (IL)6 [1] = assay: HaCaT keratinocytes, base line production of IL6 (no TNFα), Experiment 2
Description: (§1) In a second assay, the human keratinocyte cell line HaCat was stimulated with the inflammatory cytokine TNFα and the release of Interleukin (IL)6 into the medium was analysed with a commercially available “Enzyme Linked Immunosorbent Assay” (ELISA).
HaCaT cells were cultivated under the conditions explained in detail in Wertz et al., Free Radical Biology & Medicine, Vol. 37, No. 5, pp. 654-670, 2004. Cells were pre-cultivated in medium containing with lycopene at a concentration of 1 μmol/L for 48 h to give the cells sufficient time to accumulate lycopene. Lycopene was solubilized in a stock solution with Tetrahydrofuran (THF) and diluted into the medium such that the end concentration was 0.1% THF. […] Cells were harvested by trypsinisation and counted according to standard procedures. Il6 levels in the medium were standardized to the number of cells in the wells and expressed as pg/10^6 cells
This experiment was performed to investigate whether two other carotenoid representatives, beta-carotene and beta-cryptoxanthin, are able to reduce the general base line production of inflammatory mediators of normal skin

HBD2 = assay: Cytokine mix-induced keratinocyte inflammation model, HBD2 mRNA expression (real-time PCR); conditions: NHEK; for HBD2, % compared to the control treated only with cytokine mix: 2 h pre-treatment, cytokine mix 24 h
Description: (§2) Two assays were performed to investigate the effect of selected compounds of this invention in an inflammation model with human skin keratinocytes.
(§3) In this model, the association of 3 cytokines that induce a strong synergistic effect on keratinocytes in culture (Boniface K, Diveu C, Morel F, Pedretti N, Froger J, Ravon E, Garcia M, Venereau E, Preisser L, Guignouard E, Guillet G, Dagregorio G, Pene J, Moles J P, Yssel H, Chevalier S, Bernard F X, Gascan H, Lecron J C. Oncostatin M secreted by skin infiltrating T lymphocytes is a potent keratinocyte activator involved in skin inflammation. J Immunol. 2007 Apr. 1;178(7):4615-22), is used to measure the expression of selected markers for keratinocyte inflammation: the antibacterial/chemoattractive markers S100A7/psoriasin and defensin HBD2/4
(§4) Normal human epidermal keratinocytes (NHEK pool K015, 3e passage) were cultured under the following conditions: • Culture: 37° C., 5% CO2 • Culture medium: SFM (Invitrogen 17005075) • Epidermal Growth Factor 0.25 ng/ml and pituitary extract 25 μg/ml • (EGF, EP, Invitrogen 17005075) • Gentamycine 25 μg/ml (Sigma G1397) • Assay medium: SFM without EGF and pituitary extract (Invitrogen 17005075)
(§5) Keratinocytes were pre-cultivated in culture medium. At confluence, the culture medium was changed into assay medium (SFM without EGF and pituitary extract) containing or not (control) the test compounds and the cells were pre-treated for 2 h at 37° C. and 5% CO2. At the end of the pre-treatment, the cytokine mix consisting of oncostatin M (OSM), IL-17 and […], was added to the cultures for 24 h at 37° C. and 5% CO2 (a non-treated and non-stimulated control was run in parallel). At the end of the experiment, the cells were washed in PBS buffer (Invitrogen 14190094) and immediately frozen at −80° C. with 300 μl per well of Tri-reagent (Sigma T9424).
(§6) Primers couples allowing the amplification of a specific PCR product from each selected marker were used. Liver glyceraldehyde 3-phosphate dehydrogenase (G3PDH) was used as a reference marker in this experiment.
Defensin beta 4 (DEFB4), beta-defensin 2 (hBD2, DEFB2);
skin-antimicrobial peptide 1 (SAP1) HBD2 NM_004942
(§7) RNA Extraction and Reverse Transcription • Extraction of total RNA by Tri-Reagent according to the protocol recommended by the supplier. • Elimination of contaminant DNA by DNAse treatment using the “DNA-free” system (Ambion). • Reverse-transcription of mRNA in the presence of oligo(dT) and Superscript II reversetranscriptase (Invitrogen).
(§8) The PCR reactions (Polymerase Chain Reactions) were performed using the LightCycler® system (Roche Molecular Systems Inc.) according to the protocol recommended by the supplier. This system allows rapid and powerful PCR reactions.
(§9) The reaction mix (10 μl final) was added as follows: • 2.5 μl of cDNA diluted at 1/10e. • primers forward and reverse • reagent mix (Roche) containing tag DNA polymerase, SYBR Green I and MgCl2.
(§10) The incorporation of fluorescence in amplified DNA was measured continuously during the PCR cycles. […] The RE value was expressed in arbitrary units (AU) according to the formula:
(§11) (½ number of cycles)×10^6

S100A7/psoriasin = assay: Cytokine mix-induced keratinocyte inflammation model, S100A7 mRNA expression (real-time PCR); conditions: NHEK; for S100A7, % compared to the control treated only with cytokine mix: 2 h pre-treatment, cytokine mix 24 h
Description: as §2, §3, §4, §5, §6, §7, §8, §9, §10, §11

Interleukin (IL)6 [2] = assay: TNFα-stimulated HaCaT keratinocytes, release of IL6 into the medium (ELISA), Experiment 1
Description: as §1
HaCaT cells were cultivated under the conditions explained in detail in Wertz et al., Free Radical Biology & Medicine, Vol. 37, No. 5, pp. 654-670, 2004. Cells were pre-cultivated in medium containing with lycopene at a concentration of 1 μmol/L for 48 h to give the cells sufficient time to accumulate lycopene. Lycopene was solubilized in a stock solution with Tetrahydrofuran (THF) and diluted into the medium such that the end concentration was 0.1% THF. After the pre-incubation period, cells were stimulated with […] TNFα for 5 h, after which the medium was collected and frozen. Cells were harvested by trypsinisation and counted according to standard procedures. Il6 levels in the medium were standardized to the number of cells in the wells and expressed as pg/10^6 cells

Compound: CC1=C(/C=C/C(C)=C/C=C/C(C)=C/C=C/C=C(C)/C=C/C=C(C)/C=C/C2=C(C)CCCC2(C)C)C(C)(C)CCC1 [Beta-carotene, beta-carotene]
- Effect on base line IL6 secretion (in words) (Interleukin (IL)6 [1]): can reduce the base line level
- IL6 pg/10^6 cells ± SD (Interleukin (IL)6 [1]; 0.1 μmol/L): 315.86 pg/10^6 cells
- IL6 pg/10^6 cells ± SD (Interleukin (IL)6 [1]; 0.25 μmol/L): 225.15 pg/10^6 cells
- IL6 pg/10^6 cells ± SD (Interleukin (IL)6 [1]; 1.0 μmol/L): 241.8 pg/10^6 cells
- IL6 pg/10^6 cells ± SD (Interleukin (IL)6 [1]; 3.0 μmol/L): 291.85 pg/10^6 cells

Compound: CC1=C(/C=C/C(C)=C/C=C/C(C)=C/C=C/C=C(C)/C=C/C=C(C)/C=C/C2=C(C)C[C@@H](O)CC2(C)C)C(C)(C)CCC1 [Beta-cryptoxanthin, beta-cryptoxanthin]
- Effect on base line IL6 secretion (in words) (Interleukin (IL)6 [1]): moderate effect
- IL6 pg/10^6 cells ± SD (Interleukin (IL)6 [1]; 0.1 μmol/L): 264.76 pg/10^6 cells
- IL6 pg/10^6 cells ± SD (Interleukin (IL)6 [1]; 0.25 μmol/L): 268.46 pg/10^6 cells
- IL6 pg/10^6 cells ± SD (Interleukin (IL)6 [1]; 0.5 μmol/L): 286.77 pg/10^6 cells

Compound: OCCc1ccc(O)c(O)c1 [Hydroxytyrosol, hydroxytyrosol]
- HBD2, % compared to the control treated only with cytokine mix (HBD2; 0.2 μmol/L): 50%
- HBD2, % compared to the control treated only with cytokine mix (HBD2; 1.0 μmol/L): 51%
- HBD2, % compared to the control treated only with cytokine mix (HBD2; 5.0 μmol/L): 40%
- S100A7, % compared to the control treated only with cytokine mix (S100A7/psoriasin; 0.2 μmol/L): 60%
- S100A7, % compared to the control treated only with cytokine mix (S100A7/psoriasin; 1.0 μmol/L): 57%
- S100A7, % compared to the control treated only with cytokine mix (S100A7/psoriasin; 5.0 μmol/L): 49%

Compound: CC(C)=CCC/C(C)=C/C=C/C(C)=C/C=C/C(C)=C/C=C/C=C(C)/C=C/C=C(C)/C=C/C=C(\C)CCC=C(C)C [Lycopene, lycopene]
- Effect on reaction of keratinocytes to pro-inflammatory stimulus (in words) (Interleukin (IL)6 [2]): significantly reduce

Compound: Oc1ccc(C=Cc2cc(O)cc(O)c2)cc1 [Resveratrol, resveratrol]
- HBD2, % compared to the control treated only with cytokine mix (HBD2; 0.2 μmol/L): 61%
- HBD2, % compared to the control treated only with cytokine mix (HBD2; 1.0 μmol/L): 51%
- HBD2, % compared to the control treated only with cytokine mix (HBD2; 5.0 μmol/L): 47%
- Effect on cytokine mix induction of HBD2/4 mRNA (in words) (HBD2): strongly inhibited
- S100A7, % compared to the control treated only with cytokine mix (S100A7/psoriasin; 0.2 μmol/L): 68%
- S100A7, % compared to the control treated only with cytokine mix (S100A7/psoriasin; 1.0 μmol/L): 66%
- S100A7, % compared to the control treated only with cytokine mix (S100A7/psoriasin; 5.0 μmol/L): 53%
- Effect on cytokine mix induction of S100A7 mRNA (in words) (S100A7/psoriasin): strongly inhibited

Compound: (−)-Epigallocatechin gallate [EGCG]
- HBD2, % compared to the control treated only with cytokine mix (HBD2; 0.2 μmol/L): 59%
- HBD2, % compared to the control treated only with cytokine mix (HBD2; 1.0 μmol/L): 43%
- HBD2, % compared to the control treated only with cytokine mix (HBD2; 5.0 μmol/L): 33%
- Effect on cytokine mix induction of HBD2/4 mRNA (in words) (HBD2): strongly inhibited
- S100A7, % compared to the control treated only with cytokine mix (S100A7/psoriasin; 0.2 μmol/L): 66%
- S100A7, % compared to the control treated only with cytokine mix (S100A7/psoriasin; 1.0 μmol/L): 20%
- S100A7, % compared to the control treated only with cytokine mix (S100A7/psoriasin; 5.0 μmol/L): 27%
- Effect on cytokine mix induction of S100A7 mRNA (in words) (S100A7/psoriasin): strongly inhibited
